In one data set the target is Adrenergic alpha2B (Homo sapiens, UniProt P18089). Description: Adrenergic alpha2B binding. An excerpt: (§1) Further, the compounds of the invention may be tested in binding assays and functional activity assays by well known methods for other physiologically important receptors such as, but not limited to, the hERO channel, other serotonin receptors (specifically 5-HT1B, 5-HT1D, receptors, lack of agonist activity at 5-HT2B receptors, 5-HT2C, 5-HT5, 5-HT6, and 5-HT7 receptors), dopaminergic receptors (specifically D1, D2, and D3), GABAA receptors, adrenergic receptors and monoamine transporters.

The target in data set [1] is T1, recombinant 5-HT2C receptor (human) (Homo sapiens, UniProt P28335).
T1 construct: expressed in transfected cells; host or cells: AV-12 (membranes)
Description: 5-HT2C competition binding assay ([125I]-DOI, SPA). The method, then:
[^125I]-(±)DOI binding experiments are carried out in SPA 96-well format. Membranes used in this assay are prepared from AV-12 cells stably expressing recombinant 5-HT2C receptor (human). The incubation is initiated by the addition of a mixture of WGA PVT SPA beads (0.5 mg/well, Perkin Elmer (MA, USA), RPNQ0001) and 2.5 μg membranes to assay buffer (50 mM Tris-HCl, 10 mM MgCl2, 0.5 mM EDTA, 10 μM pargyline, 0.1% ascorbic acid, pH7.4) containing 0.2 nM [[^125I]-(±)DOI and varying concentrations of the test compound (10 point concentration response curves). Non-specific binding is determined in the presence of 20 μM 1-(1-Naphthyl) piperazine. Samples are incubated for 4 hr. at room temperature (22° C.) and then read in a Microbeta Trilux.
Curves are evaluated using a 4-parameter logistic nonlinear equation to obtain the concentration of competitor causing 50% inhibition of radioligand binding (IC50). Equilibrium dissociation constants (Ki) are calculated according to the equation Ki=IC50/(1+L/Kd), where L equals the concentration of radioligand used in the experiment and Kd equals the equilibrium dissociation constant of the radioligand for the receptor, determined from standard saturation analysis or homologous competition experiments. […]

A further data set deals with Adrenergic alpha1B (Homo sapiens, UniProt P35368). Briefly: Adrenergic alpha1B binding.
Excerpt: as §1

Another data set deals with Adrenergic alpha2C (Homo sapiens, UniProt P18825). Briefly: Adrenergic alpha2C binding.
Excerpt: as §1

A further data set in a line: Plasma clearance, rat. The data set is classed as in vivo. Particulars: male, Sprague Dawley, 1 mg/kg, intravenous, 1 mL/kg of 1.0 mg/mL. Here is the method: Male Sprague Dawley rats (body weight range 250-320 g) with indwelling femoral arterial cannulae are obtained from Charles River, Wilmington, Mass. 01887, USA. Test compound is administered intravenously in solution (1 mL/kg) in 20% Captisol® in 22.5 mM phosphate buffer, pH 2, at a final drug concentration of 1.0 mg/mL (free base equivalents). Blood samples are obtained using the indwelling cannula over 24 hr. Samples of plasma are obtained by centrifugation and stored frozen (−20° C.), or on dry ice, prior to analysis. Frozen plasma samples are thawed to room temperature for bioanalysis of concentrations of test compound. A related internal standard compound in acetonitrile/methanol (1:1, v/v) is added to all samples of plasma (1:1, v/v). The samples are centrifuged to remove precipitated protein prior to analysis. The supernatants are analysed by injection and rapid gradient elution on a Javelin Betasil C18 column (20×2.1 mm cartridge, Mobile phase A: Water/1 M NH4HCO3, 2000:10 v/v, Mobile Phase B: MeOH/1 M NH4HCO3, 2000:10 v/v). The eluted analytes are detected by LC-MS-MS analysis using a Sciex API 4000 triple quadrupole mass spectrometer. Concentrations of compound are determined from standards prepared and analysed under identical conditions. Clearance is calculated using non-compartmental analysis in Watson 7.4, Thermo Fisher Scientific, Inc.

In a further data set the target is Serotonin Transporter (Homo sapiens, UniProt P31645). Briefly: Serotonin transporter binding.
Excerpt: as §1

The target of another data set is T2, 5-HT2A receptor (Mus musculus, UniProt P35363).
T2 construct: from tissue; host or cells: living C57BL/6J mice
Description: Inhibition of DOI induced headshake activity. Particulars: 10 mg/kg PO, mice, DOI 3 mg/kg, read-out: inhibition of DOI induced headshake response. The data set is classed as in vivo. The method, then:
(see for example Bartoszyk G D, van Amsterdam C, Böttcher H, Seyfried C A. EMD 281014, a new selective serotonin 5-HT2A receptor antagonist. Eur J Pharmacol. 2003 473: 229-230.) Briefly, male C57BL/6J mice (20-25 g, Charles River) are housed in standard housing conditions (32 mice in a large IVC cage, 07.00 to 19.00 light phase, constant temperature (19-23° C.) and humidity (50%+/−10), ad lib food and water). Mice received either vehicle (0.25% Methyl cellulose), DOI (3 mg/kg in saline) or test compound at 10 mg/kg PO plus DOI (3 mg/kg in saline). Test compounds are individually evaluated in groups of four per experiment with n=4 for each compound, together with vehicle and DOI+vehicle (n=8). After a test compound pre-treatment time of 60 min. the mice receive either vehicle (saline) or 3 mg/kg DOI dosed subcutaneously, and are then placed into clear perspex observation chambers. […] The data is analyzed using an ANOVA and post-hoc Dunnet's Test. The compound of example 2 is tested essentially as described and is found to inhibit the DOI induced headshake response at 100% at 10 mg/kg.

In another data set the test system is Rats. Description: Rat sleep studies, coadministration with citalopram. The data set is classed as in vivo. The conditions noted are these: coadministered with citalopram.

Structures can show the parent of a compound that is named as a salt. Where only a bound is given, the exact number is not on record here.

Adrenergic alpha1B, sequence (P35368 whole entry): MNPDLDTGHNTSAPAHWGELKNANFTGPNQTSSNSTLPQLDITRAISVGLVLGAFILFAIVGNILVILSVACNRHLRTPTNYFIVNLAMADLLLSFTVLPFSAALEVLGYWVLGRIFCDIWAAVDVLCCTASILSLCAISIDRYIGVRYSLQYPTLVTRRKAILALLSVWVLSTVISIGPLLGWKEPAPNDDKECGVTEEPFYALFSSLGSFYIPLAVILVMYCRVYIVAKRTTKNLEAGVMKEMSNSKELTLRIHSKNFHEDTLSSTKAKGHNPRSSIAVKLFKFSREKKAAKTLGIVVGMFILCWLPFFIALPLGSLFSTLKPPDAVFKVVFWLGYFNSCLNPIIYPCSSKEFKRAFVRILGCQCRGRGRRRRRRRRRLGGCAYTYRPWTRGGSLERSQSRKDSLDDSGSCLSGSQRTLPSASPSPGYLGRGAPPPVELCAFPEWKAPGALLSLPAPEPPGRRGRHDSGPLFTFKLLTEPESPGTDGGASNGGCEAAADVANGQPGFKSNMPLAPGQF
Adrenergic alpha2C, sequence (P18825 whole entry): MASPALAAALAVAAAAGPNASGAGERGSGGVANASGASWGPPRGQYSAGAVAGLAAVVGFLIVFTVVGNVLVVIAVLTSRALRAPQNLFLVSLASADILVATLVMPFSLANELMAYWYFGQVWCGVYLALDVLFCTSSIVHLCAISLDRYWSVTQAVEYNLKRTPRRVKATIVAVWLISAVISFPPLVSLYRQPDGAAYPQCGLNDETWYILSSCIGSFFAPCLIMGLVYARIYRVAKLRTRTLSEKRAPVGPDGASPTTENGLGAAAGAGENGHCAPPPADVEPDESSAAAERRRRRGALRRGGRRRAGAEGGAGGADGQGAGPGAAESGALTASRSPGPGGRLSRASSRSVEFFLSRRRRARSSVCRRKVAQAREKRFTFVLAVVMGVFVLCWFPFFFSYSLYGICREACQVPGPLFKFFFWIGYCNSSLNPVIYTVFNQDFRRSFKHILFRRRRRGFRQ
Serotonin Transporter, sequence (P31645 whole entry): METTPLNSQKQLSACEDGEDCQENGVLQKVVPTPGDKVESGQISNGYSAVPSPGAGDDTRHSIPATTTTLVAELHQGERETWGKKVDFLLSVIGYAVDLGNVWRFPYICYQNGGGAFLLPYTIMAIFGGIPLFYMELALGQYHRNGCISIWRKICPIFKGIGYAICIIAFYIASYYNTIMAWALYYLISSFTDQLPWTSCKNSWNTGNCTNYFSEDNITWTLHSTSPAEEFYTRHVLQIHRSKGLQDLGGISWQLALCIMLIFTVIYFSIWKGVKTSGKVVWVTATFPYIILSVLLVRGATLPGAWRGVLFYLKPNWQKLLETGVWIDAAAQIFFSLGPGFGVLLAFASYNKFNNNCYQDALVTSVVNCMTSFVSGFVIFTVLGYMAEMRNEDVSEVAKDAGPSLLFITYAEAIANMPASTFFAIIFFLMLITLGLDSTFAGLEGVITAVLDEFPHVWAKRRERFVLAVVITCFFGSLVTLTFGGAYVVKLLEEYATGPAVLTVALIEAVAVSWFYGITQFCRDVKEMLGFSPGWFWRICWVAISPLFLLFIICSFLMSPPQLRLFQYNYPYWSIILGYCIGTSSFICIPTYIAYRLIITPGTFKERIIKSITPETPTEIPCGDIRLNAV
Adrenergic alpha2B, sequence (P18089 whole entry): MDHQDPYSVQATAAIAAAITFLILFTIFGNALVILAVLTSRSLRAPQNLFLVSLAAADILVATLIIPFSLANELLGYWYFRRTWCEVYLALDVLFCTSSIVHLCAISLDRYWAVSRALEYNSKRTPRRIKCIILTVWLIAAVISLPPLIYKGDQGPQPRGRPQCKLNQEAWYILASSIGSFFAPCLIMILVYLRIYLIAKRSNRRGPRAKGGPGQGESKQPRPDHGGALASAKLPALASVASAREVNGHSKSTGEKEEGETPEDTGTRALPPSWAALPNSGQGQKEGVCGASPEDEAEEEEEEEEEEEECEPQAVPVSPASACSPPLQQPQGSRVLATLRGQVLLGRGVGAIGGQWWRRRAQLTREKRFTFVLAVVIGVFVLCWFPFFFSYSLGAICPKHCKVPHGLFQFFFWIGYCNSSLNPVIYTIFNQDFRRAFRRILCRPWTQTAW
T1 sequence (P28335 33-458): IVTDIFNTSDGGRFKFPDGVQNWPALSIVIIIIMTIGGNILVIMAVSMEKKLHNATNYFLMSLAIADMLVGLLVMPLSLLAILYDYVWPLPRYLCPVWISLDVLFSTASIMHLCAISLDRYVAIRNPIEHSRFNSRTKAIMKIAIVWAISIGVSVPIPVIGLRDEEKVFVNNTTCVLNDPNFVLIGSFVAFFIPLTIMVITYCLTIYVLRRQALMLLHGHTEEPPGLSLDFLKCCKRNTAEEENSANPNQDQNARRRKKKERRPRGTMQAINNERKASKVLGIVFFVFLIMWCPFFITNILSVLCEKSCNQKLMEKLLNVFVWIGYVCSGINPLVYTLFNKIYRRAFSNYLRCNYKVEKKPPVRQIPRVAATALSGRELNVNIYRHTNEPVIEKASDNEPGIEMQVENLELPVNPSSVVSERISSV
T2 sequence (P35363 whole entry): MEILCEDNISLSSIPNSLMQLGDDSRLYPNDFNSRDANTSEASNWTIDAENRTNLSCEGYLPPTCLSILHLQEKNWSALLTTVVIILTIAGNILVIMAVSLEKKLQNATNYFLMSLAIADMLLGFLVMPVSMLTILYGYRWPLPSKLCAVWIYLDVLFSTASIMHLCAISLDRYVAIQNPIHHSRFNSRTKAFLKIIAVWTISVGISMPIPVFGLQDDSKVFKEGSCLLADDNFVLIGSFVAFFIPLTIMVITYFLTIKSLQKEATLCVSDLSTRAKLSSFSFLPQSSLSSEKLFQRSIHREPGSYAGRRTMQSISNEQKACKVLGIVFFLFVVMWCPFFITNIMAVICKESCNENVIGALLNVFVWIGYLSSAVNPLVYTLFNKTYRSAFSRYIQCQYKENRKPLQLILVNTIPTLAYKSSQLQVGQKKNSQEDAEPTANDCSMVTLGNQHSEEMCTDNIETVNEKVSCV

Turning to `Cc1ccc2c(c1)Oc1sc(C)cc1C(N1CCN(CC(C)(C)C(=O)O)CC1)=N2` [Example 2, 3-[4-(2,8-Dimethylthieno[2,3-b][1,5]benzoxazepin-4-yl)piperazin-1-yl]-2,2-dimethyl-propanoic acid dihydrochloride], the Ki (as a rule, the dissociation constant of the complex between target and ligand, obtained from inhibition or displacement) was 3.71 µM on Adrenergic alpha2B; 883 nM in data set [1]; above 16.2 µM at Adrenergic alpha1B; above 5.55 µM at Adrenergic alpha2C; above 651 nM on Serotonin Transporter. The clearance (usually the rate of elimination divided by the concentration) in the data set “Plasma clearance, rat” came to 27 mL/min/kg. The inhibition (in general, the change of the read-out against control, counted positive when it falls) at 10 mg/kg on 5-HT2A receptor came out at 100%. Moreover, the “NREM sleep on coadministration with citalopram” value in the data set on Rats is on record as “significantly increase NREM sleep at significantly lower doses”.

Values taken from patent US9512140B2, “(Thieno[2,3-b][1,5]benzoxazepin-4-yl)piperazin-1-yl compounds as dual activity H1 inverse agonists/5-HT2A antagonists” (priority 2011, dated 2016).
